According to patent US8501233B2, “Compositions and methods for treating cancer” (Wake Forest University, priority 2007, dated 2013):

Tests used:
HCT 116 cells = experiment: Cell death of HCT 116 cells, single 8 second lasing (Example 8); assay type: cell-based, human; details: oxaliplatin 300 μM, including cells heated to 42° C.
Description: Two (2) 48 well plates containing 10,000-20,000 HCT 116 cells/well (human colon carcinoma) were prepared for a series of experiments measuring cell death as a function of exposure to various compositions, including compositions according to some embodiments of the present invention.
(§1) HCT 116 colorectal cancer cell lines were purchased from American Type Culture Collections (ATCC) and cultured in McCoys's media supplemented with 2.5 μg/ml of amphotericin, 1% L-glutamine, 1% penicillin/streptomycin, and 10% fetal bovine serum. Cells were seeded in wells of the appropriate trays at a density of 10,000-20,000 cells per well.
(§2) MWNTs were grown by chemical vapor deposition (CVD) using xylene as the carbon precursor and ferrocene as a catalyst at concentrations of 60 mg or 400 mg. Hydrogen and argon gases were used to flow the xylene through a preheater at 170° C. and a furnace oven at 700° C. An injection rate of 5 ml/hour for a one hour run yielded about 200 mg of carbon nanotubes.
(§3) 50 mg of the MWNTs were cut and cleaned by sonication in a mixture of 90 ml of concentrated sulfuric acid and 30 ml of concentrated nitric acid for 24 hours. The length of the nanotubes was about 2 μm as determined by transmission electron microscopy (TEM). MWNT suspensions were prepared by adding 1 mg of MWNT per 1 ml of aqueous solution comprising 0.1% by weight Pluronic 127® surfactant. […]

RKO cells [1] = experiment: Cell death of RKO cells after exposure to compositions, calorimetric assay (Example 4); assay type: cell-based, human; details: oxaliplatin 300 μM, heated to 42° C. for two hours
Description: (§4) Three (3) 48 well plates containing 20,000 RKO cells/well (human colon carcinoma) were prepared for a series of experiments measuring cell death as a function of exposure to various compositions, including compositions according to some embodiments of the present invention.
as §2
50 mg of the MWNTs were cut and cleaned by sonication in a mixture of 90 ml of concentrated sulfuric acid and 30 ml of concentrated nitric acid for 24 hours. The length of the nanotubes was about 2 μm as determined by transmission electron microscopy (TEM). MWNT suspensions were prepared by adding 1 mg of MWNT per 1 ml of aqueous solution having 0.1% by weight Pluronic 127® surfactant. The suspensions were sonicated to enhance MWNT dispersion. MWNT suspensions were diluted with water to a concentration of 100 μg MWNT/ml.
A solution comprising oxaliplatin at a concentration of 300 μM was obtained (Ox). […]
Cell death resulting from the addition of the various compositions at the three temperatures was monitored by calorimetric assay. […]

RKO cells [2] = experiment: Cell death / viability of RKO cells, MTS assay (Example 5); assay type: cell-based, human; details: oxaliplatin 300 μM, including cells heated to 42° C., MTS 48 hours after treatment
Description: as §4, with “10,000-20,000” for “20,000”, “cells/well (human colon carcinoma) and three (3) 48 well plates containing 10,000-20,000 HCT 116 cell/well” for “cells/well”
as §1, with “RKO and HCT” for “HCT”, “well. […]” for “well.”
50 mg of the MWNTs were cut and cleaned by sonication in a mixture of 90 ml of concentrated sulfuric acid and 30 ml of concentrated nitric acid for 24 hours. The length of the nanotubes was about 2 μm as determined by transmission electron microscopy (TEM). […]
Following incubation, the media in the wells of each of the plates was replaced with media containing MTS assay reagents from Promega's CellTiter 96® AQueous assay kit. Cell viability was quantified over a three hour period according to the manufacturers instructions.

[3] = tested on: HeLa cervical cancer cells; experiment: In vivo evaluation of localized hyperthermia, intraperitoneal cancer nodules in athymic mice (Example 11); details: Group 3 irradiated 10 seconds (42° C.), Group 2 heated 42° C. two hours, two weeks after treatment
Description: 15 athymic mice are divided equally into three treatment groups as provided in Table 13, with Group 1 receiving a treatment composition of 100 μg/ml of MWNTs, Group 2 receiving a treatment composition comprising 300 μM oxaliplatin, and Group 3 receiving a treatment composition comprising 300 μM oxaliplatin and 100 μg MWNT per ml.
Each animal of Groups 1-3 receives intraperitoneal injections of 1E6 HeLa cervical cancer cells which express folic acid receptors. […] Two weeks after the intraperitoneal injections of the cancerous cells, the intraperitoneal cavity of each animal in Groups 1-3 is exposed, and the cancer nodules photographed allowing size and number of the nodules to be recorded.
After examination and quantification of cancer nodules, two 5 ml solutions of FA functionalized MWNTs (100 μg/ml) are provided to the intraperitoneal cavity of each animal in Groups 1 and 3. […]
The animals of Groups 1-3 are allowed to recover for two weeks. […] The size and number of cancerous nodules at the time of sacrifice is compared to the initially recorded observations of size and number of cancerous nodules for each animal. Moreover, for each animal in the study, a total of about 1 to 10 mg of tumor nodule mass is retained to determine platinum content as determined by elemental analysis.

RKO cells [4] = experiment: Cell death of RKO cells with Mitomycin C compositions, MTS assay (Example 7); assay type: cell-based, human; details: MMC 40 μM, including cells heated to 42° C.
Description: Three (3) 48 well plates containing 10,000-20,000 RKO cells/well (human colon carcinoma) were prepared for a series of experiments measuring cell death as a function of exposure to various compositions, including compositions according to some embodiments of the present invention.
as §1, with “RKO” for “HCT 116”
as §2, §3

| SMILES | cell death (HCT 116 cells) | cell death (RKO cells [1]) | cell death (RKO cells [2]) | reduction in the sizes and numbers of cancerous nodules (Groups 2 and 3 compared) [3] | cell death (RKO cells [4]) |
| --- | --- | --- | --- | --- | --- |
| O=C1[O][Pt]2([NH][C@@H]3CCCC[C@H]3[NH]2)[O]C1=O [oxaliplatin] | significant death | significant | significant death | substantially similar reduction | – |
| CO[C@@]12[C@H](COC(N)=O)C3=C(C(=O)C(C)=C(N)C3=O)N1C[C@@H]1N[C@@H]12 [MMC, Mitomycin C] | – | – | – | – | significant death |
